Source: PubChem BioAssay (NCI)
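Briefly, cells in 96-well plates were exposed to five compound concentrations for 48 h, and endpoints were estimated by linear interpolation. Abbreviation: GI50, concentration required for 50% inhibition of growth. Definition used: TGI = concentration required for complete inhibition of growth.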

How the values were obtained:
Test in all cases: NCI tumour cell line growth inhibition, 48 h
A549 NSCLC = test system: A549 NSCLC
NCI-H460 lung = test system: NCI-H460 lung
UACC-62 melanoma = test system: UACC-62 melanoma
HS 578T breast = test system: HS 578T breast
ACHN renal = test system: ACHN renal
SF-539 CNS = test system: SF-539 CNS
OVCAR-8 ovarian = test system: OVCAR-8 ovarian
HCC-2998 colon = test system: HCC-2998 colon
HL-60(TB) leukemia = test system: HL-60(TB) leukemia
HOP-92 NSCLC = test system: HOP-92 NSCLC
NCI-H522 lung = test system: NCI-H522 lung
SW-620 colon = test system: SW-620 colon
COLO 205 colon = test system: COLO 205 colon
BT-549 breast = test system: BT-549 breast
SK-MEL-2 melanoma = test system: SK-MEL-2 melanoma
SNB-75 CNS = test system: SNB-75 CNS
PC-3 prostate = test system: PC-3 prostate
MALME-3M melanoma = test system: MALME-3M melanoma
A498 renal = test system: A498 renal
SNB-19 CNS = test system: SNB-19 CNS
HCT-116 colon = test system: HCT-116 colon
OVCAR-5 ovarian = test system: OVCAR-5 ovarian
SK-MEL-5 melanoma = test system: SK-MEL-5 melanoma
MDA-MB-231 breast = test system: MDA-MB-231 breast
HOP-62 NSCLC = test system: HOP-62 NSCLC
EKVX NSCLC = test system: EKVX NSCLC
DU-145 prostate = test system: DU-145 prostate
NCI-H226 lung = test system: NCI-H226 lung
SN12C renal = test system: SN12C renal
LOX IMVI melanoma = test system: LOX IMVI melanoma
T-47D breast = test system: T-47D breast
HT29 colon = test system: HT29 colon
NCI-H23 lung = test system: NCI-H23 lung
UO-31 renal = test system: UO-31 renal
786-0 renal = test system: 786-0 renal
MDA-MB-435 = test system: MDA-MB-435
U251 CNS = test system: U251 CNS
UACC-257 melanoma = test system: UACC-257 melanoma
CAKI-1 renal = test system: CAKI-1 renal
OVCAR-4 ovarian = test system: OVCAR-4 ovarian
SR leukemia = test system: SR leukemia
M14 melanoma = test system: M14 melanoma
NCI/ADR-RES ovarian = test system: NCI/ADR-RES ovarian
MOLT-4 leukemia = test system: MOLT-4 leukemia
SK-OV-3 ovarian = test system: SK-OV-3 ovarian
SF-268 CNS = test system: SF-268 CNS
SF-295 CNS = test system: SF-295 CNS
RXF 393 renal = test system: RXF 393 renal
MCF7 breast = test system: MCF7 breast
KM12 colon = test system: KM12 colon
HCT-15 colon = test system: HCT-15 colon
OVCAR-3 ovarian = test system: OVCAR-3 ovarian
TK-10 renal = test system: TK-10 renal
RPMI-8226 leukemia = test system: RPMI-8226 leukemia
SK-MEL-28 melanoma = test system: SK-MEL-28 melanoma

With NCCCCCCCCCCn1c2c(c3ccccc3c1=O)C(=O)c1ccccc1-2 the GI50 (A549 NSCLC) was 11.5 µM, the TGI (A549 NSCLC) was 37 µM and the GI50 (NCI-H460 lung) was 4.06 µM. The TGI (NCI-H460 lung) was 18.5 µM, the GI50 (UACC-62 melanoma) was 13.7 µM and the TGI (UACC-62 melanoma) was 29.4 µM. For the same compound, the GI50 (HS 578T breast) was 13.6 µM, the TGI (HS 578T breast) was 36.4 µM and the GI50 (ACHN renal) was 6 µM. For the same compound, the TGI (ACHN renal) was 18.2 µM, the GI50 (SF-539 CNS) was 1.83 µM and the TGI (SF-539 CNS) was 3.52 µM. The GI50 (OVCAR-8 ovarian) was 3.34 µM, the TGI (OVCAR-8 ovarian) was 56.9 µM and the GI50 (HCC-2998 colon) was 6.14 µM. The TGI (HCC-2998 colon) was 19 µM, the GI50 (HL-60(TB) leukemia) was 1.77 µM and the TGI (HL-60(TB) leukemia) was 3.44 µM. It also gave a GI50 (HOP-92 NSCLC) of 2.74 µM, a TGI (HOP-92 NSCLC) of 7.49 µM and a GI50 (NCI-H522 lung) of 2.84 µM. The TGI (NCI-H522 lung) was 8.4 µM, the GI50 (SW-620 colon) was 2.33 µM and the TGI (SW-620 colon) was 5.5 µM. It also gave a GI50 (COLO 205 colon) of 3.58 µM, a TGI (COLO 205 colon) of 12.7 µM and a GI50 (BT-549 breast) of 5.64 µM. The TGI (BT-549 breast) was 19.8 µM, the GI50 (SK-MEL-2 melanoma) was 2.04 µM and the TGI (SK-MEL-2 melanoma) was 4.41 µM. It also gave a GI50 (SNB-75 CNS) of 5.01 µM, a TGI (SNB-75 CNS) of 17.5 µM and a GI50 (PC-3 prostate) of 2.16 µM. It also gave a TGI (PC-3 prostate) of 4.54 µM, a GI50 (MALME-3M melanoma) of 13.2 µM and a TGI (MALME-3M melanoma) of 33.9 µM. It also gave a GI50 (A498 renal) of 13.1 µM, a TGI (A498 renal) of 33.7 µM and a GI50 (SNB-19 CNS) of 8.31 µM. For the same compound, the TGI (SNB-19 CNS) was 28 µM, the GI50 (HCT-116 colon) was 2.74 µM and the TGI (HCT-116 colon) was 7.66 µM. It also gave a GI50 (OVCAR-5 ovarian) of 4.52 µM, a TGI (OVCAR-5 ovarian) of 15.3 µM and a GI50 (SK-MEL-5 melanoma) of 8.25 µM. For the same compound, the TGI (SK-MEL-5 melanoma) was 21.3 µM, the GI50 (MDA-MB-231 breast) was 5.22 µM and the TGI (MDA-MB-231 breast) was 18 µM. It also gave a GI50 (HOP-62 NSCLC) of 4.84 µM, a TGI (HOP-62 NSCLC) of 17.3 µM and a GI50 (EKVX NSCLC) of 17.3 µM. For the same compound, the TGI (EKVX NSCLC) was 37.8 µM, the GI50 (DU-145 prostate) was 3.46 µM and the TGI (DU-145 prostate) was 11.2 µM. The GI50 (NCI-H226 lung) was 20.4 µM, the TGI (NCI-H226 lung) was 47.1 µM and the GI50 (SN12C renal) was 3.32 µM. For the same compound, the TGI (SN12C renal) was 9.41 µM, the GI50 (LOX IMVI melanoma) was 2.65 µM and the TGI (LOX IMVI melanoma) was 7.06 µM. The GI50 (T-47D breast) was 11.4 µM, the TGI (T-47D breast) was 39 µM and the GI50 (HT29 colon) was 1.89 µM. It also gave a TGI (HT29 colon) of 3.75 µM, a GI50 (NCI-H23 lung) of 14.9 µM and a TGI (NCI-H23 lung) of 32.6 µM. The GI50 (UO-31 renal) was 6.16 µM, the TGI (UO-31 renal) was 18.8 µM and the GI50 (786-0 renal) was 4.8 µM. It also gave a TGI (786-0 renal) of 19.4 µM, a GI50 (MDA-MB-435) of 11.8 µM and a TGI (MDA-MB-435) of 27.9 µM. For the same compound, the GI50 (U251 CNS) was 10.1 µM, the TGI (U251 CNS) was 24.7 µM and the GI50 (UACC-257 melanoma) was 21.2 µM. For the same compound, the TGI (UACC-257 melanoma) was 44.8 µM, the GI50 (CAKI-1 renal) was 14.7 µM and the TGI (CAKI-1 renal) was 32.1 µM. It also gave a GI50 (OVCAR-4 ovarian) of 8.7 µM, a TGI (OVCAR-4 ovarian) of 25.1 µM and a GI50 (SR leukemia) of 1.86 µM. It also gave a TGI (SR leukemia) of 3.53 µM, a GI50 (M14 melanoma) of 4.72 µM and a TGI (M14 melanoma) of 16 µM. It also gave a GI50 (NCI/ADR-RES ovarian) of 10.9 µM, a TGI (NCI/ADR-RES ovarian) of 28.5 µM and a GI50 (MOLT-4 leukemia) of 1.81 µM. For the same compound, the TGI (MOLT-4 leukemia) was 3.32 µM, the GI50 (SK-OV-3 ovarian) was 18.7 µM and the TGI (SK-OV-3 ovarian) was 35 µM. For the same compound, the GI50 (SF-268 CNS) was 11.7 µM, the TGI (SF-268 CNS) was 50.3 µM and the GI50 (SF-295 CNS) was 6.48 µM. It also gave a TGI (SF-295 CNS) of 22 µM, a GI50 (RXF 393 renal) of 15.2 µM and a TGI (RXF 393 renal) of 36.7 µM. It also gave a GI50 (MCF7 breast) of 4.67 µM, a TGI (MCF7 breast) of 20.2 µM and a GI50 (KM12 colon) of 5.85 µM. It also gave a TGI (KM12 colon) of 21.9 µM, a GI50 (HCT-15 colon) of 4.51 µM and a TGI (HCT-15 colon) of 16.9 µM. For the same compound, the GI50 (OVCAR-3 ovarian) was 10.8 µM, the TGI (OVCAR-3 ovarian) was 27.3 µM and the GI50 (TK-10 renal) was 6.55 µM. For the same compound, the TGI (TK-10 renal) was 20.9 µM, the GI50 (RPMI-8226 leukemia) was 2.16 µM and the TGI (RPMI-8226 leukemia) was 4.47 µM. For the same compound, the GI50 (SK-MEL-28 melanoma) was 3.97 µM and the TGI (SK-MEL-28 melanoma) was 14.8 µM.
